Experimental data as given in ChEMBL document CHEMBL3813667, “Triterpene sapogenin-polyarginine conjugates exhibit promising antibacterial activity against Gram-positive strains” (Bioorg Med Chem, 2016).
In brackets after ≈: the same amount, converted by molar mass. One block for each compound: values may come before it. Activity calls are given as the source filed them. The calls are words filed in the database; no cut-off is given here.

Tests used:
Bacillus spizizenii [1] = test: Antibacterial activity against Bacillus subtilis ATCC 6633 after 16 hrs by broth microdilution method; type: functional; conditions: ATCC 6633, 16 h
Bacillus spizizenii [2] = test: Antibacterial activity against Bacillus subtilis ATCC 6633 after 16 hrs by broth microdilution method in presence of peptide-R3; type: functional; conditions: ATCC 6633, 16 h
Escherichia coli [3] = test: Antibacterial activity against Escherichia coli ATCC 25922 after 16 hrs by broth microdilution method; type: functional; conditions: ATCC 25922, 16 h
Staphylococcus aureus [4] = test: Antibacterial activity against Staphylococcus aureus ATCC 25923 after 16 hrs by broth microdilution method in presence of peptide-R3; type: functional; conditions: ATCC 25923, 16 h
Escherichia coli [5] = test: Antibacterial activity against Escherichia coli ATCC 25922 after 16 hrs by broth microdilution method in presence of peptide-R3; type: functional; conditions: ATCC 25922, 16 h
Staphylococcus aureus [6] = test: Antibacterial activity against Staphylococcus aureus ATCC 25923 after 16 hrs by broth microdilution method; type: functional; conditions: ATCC 25923, 16 h
[7] = Toxicity against human erythrocytes assessed as hemolysis after 1 hr by spectrophotometric analysis; type: cell-based, Erythrocyte
[8] = Metabolic stability in human plasma assessed as compound remaining after 18 hrs by HPLC analysis; type: ADME, cell-free; conditions: read-out: Stability
[9] = Therapeutic index, ratio of HC50 for human erythrocytes to MIC for Staphylococcus aureus ATCC 25923; conditions: read-out: TI
[10] = Therapeutic index, ratio of HC50 for human erythrocytes to MIC for Bacillus subtilis ATCC 6633; conditions: read-out: TI
[11] = Metabolic stability in human plasma assessed as compound remaining after 6 hrs by HPLC analysis; type: ADME, cell-free; conditions: read-out: Stability
Staphylococcus aureus [12] = test: Antibacterial activity against Staphylococcus aureus ATCC 25923 at 1 mg/ml up to 18 hrs by broth microdilution method in presence of human plasma; type: functional; conditions: ATCC 25923, Plasma
Staphylococcus aureus [13] = test: Antibacterial activity against Staphylococcus aureus ATCC 25923 assessed as disruption of cell membrane at 4 times MIC after 2 hrs by DAPI/propidium iodide dye staining based confocal laser scanning microscopic analysis; type: functional, organism-based
Staphylococcus aureus [14] = test: Antibacterial activity against Staphylococcus aureus ATCC 25923 at 1 mg/ml after 3 hrs by broth microdilution method in presence of human plasma; type: functional; conditions: ATCC 25923, Plasma
Staphylococcus aureus [15] = test: Ratio of MIC for antibacterial activity against Staphylococcus aureus ATCC 25923 in absence of human plasma to MIC for antibacterial activity against Staphylococcus aureus ATCC 25923 in presence of human plasma; type: functional
Staphylococcus aureus [16] = test: Antibacterial activity against Staphylococcus aureus ATCC 25923 assessed as cell lysis at 4 times MIC after 2 hrs by transmission electron microscopic analysis; type: functional, organism-based
[17] = Selectivity index, ratio of cytotoxicity for human MCF7 cells to MIC for Bacillus subtilis ATCC 6633; type: toxicity, cell-based; conditions: read-out: Selectivity Index
MCF7 = test: Cytotoxicity against human MCF7 cells assessed as cell viability at 62.5 ug/ml after 6 hrs by spectroscopic analysis; type: cell-based; conditions: mcf7, 6 h
[18] = Solubility of the compound in water at 40 mg sonicated for 15 mins at 25 degC measured after 5 hrs; type: physicochemical

Compound: C=C(C)[C@@H]1CC[C@]2(C(=O)O)CC[C@]3(C)[C@H](CC[C@@H]4[C@@]5(C)CC[C@H](O)C(C)(C)[C@@H]5CC[C@]43C)[C@@H]12 [BETULINIC ACID]
MIC (Bacillus spizizenii [1]): 547 µM (≈ 250 µg/mL)
MIC (Bacillus spizizenii [2]): > 531 µM
MIC (Escherichia coli [3]): > 1100 µM
MIC (Staphylococcus aureus [4]): > 531 µM
MIC (Escherichia coli [5]): > 531 µM
MIC (Staphylococcus aureus [6]): 547 µM (≈ 250 µg/mL)

Compound: C=C(C)[C@@H]1CC[C@]2(C(=O)OCc3cn(CC(=O)N[C@@H](CCCNC(=N)N)C(=O)N[C@@H](CCCNC(=N)N)C(=O)N[C@@H](CCCNC(=N)N)C(=O)O)nn3)CC[C@]3(C)[C@H](CC[C@@H]4[C@@]5(C)CC[C@H](O)C(C)(C)[C@@H]5CC[C@]43C)[C@@H]12
HC50 at 1 h [7]: 80 µM
MIC (Bacillus spizizenii [1]): 3.7 µM (≈ 3.94 µg/mL)
selectivity ratio [9]: 22
MIC (Escherichia coli [3]): 14.7 µM (≈ 15.6 µg/mL)
selectivity ratio [10]: 22
solubility at 5 h [18]: 98 mg/mL (≈ 92.1 mM)
MIC (Staphylococcus aureus [6]): 3.7 µM (≈ 3.94 µg/mL)

Compound: C=C(C)[C@@H]1CC[C@]2(C(=O)OCc3cn(CC(=O)N[C@@H](CCCNC(=N)N)C(=O)N[C@@H](CCCNC(=N)N)C(=O)N[C@@H](CCCNC(=N)N)C(=O)N[C@@H](CCCNC(=N)N)C(=O)N[C@@H](CCCNC(=N)N)C(=O)O)nn3)CC[C@]3(C)[C@H](CC[C@@H]4[C@@]5(C)CC[C@H](O)C(C)(C)[C@@H]5CC[C@]43C)[C@@H]12
HC50 at 1 h [7]: 35 µM
MIC (Bacillus spizizenii [1]): 2.8 µM (≈ 3.85 µg/mL)
selectivity ratio [9]: 6
MIC (Escherichia coli [3]): > 91 µM
selectivity ratio [10]: 12
solubility at 5 h [18]: 220 mg/mL (≈ 160 mM)
MIC (Staphylococcus aureus [6]): 5.7 µM (≈ 7.85 µg/mL)

Second part, led by results:

remaining at 18 h [8]: 1%
MIC (Bacillus spizizenii [1]): 1.5 µM
MIC (Escherichia coli [3]): 3.1 µM
MIC (Staphylococcus aureus [6]): 1.5 µM
remaining at 6 h [11]: 54%
Compound: H-GIGKFLKKAKKFGKAFVKILKK-OH
HC50 at 1 h [7]: 153 µM
selectivity ratio [9]: 100
selectivity ratio [10]: 100

MIC (Staphylococcus aureus [12]): 3.5 µM
remaining at 18 h [8]: 87%
MIC (Bacillus spizizenii [1]): 1.8 µM (≈ 1.99 µg/mL)
MIC (Staphylococcus aureus [14]): 3.5 µM
MIC (Escherichia coli [3]): > 113 µM
MIC (Staphylococcus aureus [6]): 3.5 µM (≈ 3.87 µg/mL)
Compound: C=C(C)[C@@H]1CC[C@]2(C(=O)O)CC[C@]3(C)[C@H](CC[C@@H]4[C@@]5(C)CC[C@H](OC(=O)CCc6cn(CC(=O)N[C@@H](CCCNC(=N)N)C(=O)N[C@@H](CCCNC(=N)N)C(=O)N[C@@H](CCCNC(=N)N)C(=O)O)nn6)C(C)(C)[C@@H]5CC[C@]43C)[C@@H]12
HC50 at 1 h [7]: 215 µM
Activity (Staphylococcus aureus [13]): Active
selectivity ratio [9]: 62
Ratio (Staphylococcus aureus [15]): 2
Activity (Staphylococcus aureus [16]): Active
selectivity ratio [10]: 125
selectivity ratio [17]: 20
Activity (MCF7): Non-toxic

solubility at 5 h [18]: 636 mg/mL (≈ 345 mM)
Compound: C=C(C)[C@@H]1CC[C@]2(C(=O)OCc3cn(CC(=O)N[C@@H](CCCNC(=N)N)C(=O)N[C@@H](CCCNC(=N)N)C(=O)N[C@@H](CCCNC(=N)N)C(=O)N[C@@H](CCCNC(=N)N)C(=O)N[C@@H](CCCNC(=N)N)C(=O)N[C@@H](CCCNC(=N)N)C(=O)N[C@@H](CCCNC(=N)N)C(=O)N[C@@H](CCCNC(=N)N)C(=O)O)nn3)CC[C@]3(C)[C@H](CC[C@@H]4[C@@]5(C)CC[C@H](O)C(C)(C)[C@@H]5CC[C@]43C)[C@@H]12
HC50 at 1 h [7]: 55 µM
selectivity ratio [9]: 13
selectivity ratio [10]: 13
